# Laboratory results reported in patent US5977144A (priority 1997, dated 1999).
# Entries after “also recorded” stand apart in the source; their conditions may differ. Read-outs that look alike come from different tables or passages of the source.
# Columns and labels:
# [1] = biological target: T1, rat alpha4beta2 receptor (Rattus norvegicus, UniProt P09483+P12390); assay: Activation of alpha4beta2 receptors expressed in Xenopus oocytes; assay type: cell-based; settings: read-out: alpha4beta2 activation: % response observed with 10 μM acetylcholine
# [2] = biological target: T2, rat alpha7 receptor (Rattus norvegicus, UniProt Q05941); assay: cell-based; design: Oocytes Antagonist: unit not given here; settings: for IC50: ACh applied 5 min after compound, read-out: IC50, antagonism subsequent to agonist activity; for Oocytes Antagonist: Table 4; for alpha 7 antagonism: % of antagonism of acetylcholine administered after drug: xenopus oocytes
# Method: FIG. 13B. Effects of chronic injections of DMXB or nicotine on high affinity [^3 H]ACh or [^125 I]α-bungarotoxin (BTX) binding in rat neocortices. Adult male rats were injected with saline vehicle, 1 mg/kg DMXB or 0.2 mg/kg nicotine (NIC) (IP) daily for 2 weeks. At that time, neocortices were removed and assayed for high affinity [^3 H]ACh or [^125 I]α-bungarotoxin binding as described in the text. […] Responses of rat α7 AChR to 3-CA, 2-MeOCA and 4-MeOCA. […] All responses are expressed relative to the oocyte-response to 500 μM ACh applied 5 min prior to the experimental agonist application.
# (§1) Oocytes were prepared and recordings made as described previously (de Fiebre, et al., 1995). Frogs were anesthetized by submersion in 0.1% (3)-aminobenzoic acid ethyl ester and several lobes of the ovary surgically removed through a small incision in the abdomen wall. Oocytes were freed from the follicle cells by treatment with collagenase (in calcium-free Barth's solution: 88 mM NaCl, 1 mM KCl, 15 mM Hepes pH 7.6, 0.33 mM MgSO4, 0.1 mg/ml gentamicin sulfate) for 2 hr at room temperature and Stage 5 oocytes were isolated. Oocytes were rinsed and stored at 18° C. in Barth's saline (88 mM NaCl, 1 mM KCl, 15 mM Hepes pH 7.6, 0.3 mM Ca(NO3)2, 0.41 mM CaCl2, 0.82 mM MgSO4, 0.1 mg/ml gentamicin sulfate) before and after microinjection with RNA. Microinjection was conducted with a Drummond Scientific "Nanoject Variable" automatic injector. Oocytes were injected with a 50 nl solution of specified rat nicotinic subunit mRNA species (2-10 mg/ml; derived from the cDNA containing HIP 306 plasmid kindly provided by Dr. Jim Boulter, Salk Institute) and incubated 2-7 days at 18° C. before electrophysiological recording. electrophysiological recordings, oocytes were perfused in a Warner Instruments RC-8 recording chamber with a perfusion solution containing 115 mM NaCl, 2.5 mM KCl, 10 mM Hepes pH 7.2, 1.8 mM CaCl2 and 1 μM atropine to block muscarinic responses. Perfusion was continuous at a rate of 10 ml/min. Drags were diluted in perfusion solution and applied using a solenoid valve to switch from perfusion to drug solutions. Current responses to drug administration were studied under two electrode voltage clamp at a holding potential of -70 mV using a Dagan Corp. TEV-200 voltage clamp connected to a 386-SX IBM computer using a TL-1 DMA interface (Axon Instruments). Micropipettes were filled with 3 M KCl and had resistances of 0.5-2 MOhms. Drug responses are analyzed with PClamp software (Axon Instruments). Oocytes with resting potentials of less than -30 mV were rejected.
# (§2) Antagonist properties subsequent to agonist activity were measured as a decrease in responsiveness to ACh applied 5 min after compound-application, normalized to ACh application instead of the anabaseine-derivative (FIG. 13A AND FIG. 13B).
# [3] = test system: PC12 cells; assay type: cell-based; settings: Table 4
# [4] = biological target: alpha7 receptor (high affinity alpha-bungarotoxin binding, rat brain membranes) (Rattus norvegicus, UniProt Q05941); assay: biochemical; settings: for IC50: rat brain membranes, read-out: IC50, [125I]α-bungarotoxin binding
# [5] = biological target: T3, alpha4beta2 receptor (cytisine binding, rat brain membranes) (Rattus norvegicus, UniProt P09483+P12390); assay: biochemical; settings: 1 μM (Table 2); read-out: alpha4beta2 binding: % inhibition of cytistine binding
# T3 construct: from tissue; host or cells: rat brain membranes
# From the text: Further, the cinnamylidene-anabaseines displaced high affinity cytisine binding to rat brain membranes with lower affinity than other types of benzylidene-anabaseines. These observations are consistent with the cinnamylidene-anabaseines having some selectivity for alpha7 receptor subtypes over other types of nicotinic receptors, especially alpha4beta2 receptors, based on the types of receptors to which alpha-bungarotoxin and cytisine bind to in brain.
# [6] = biological target: T1, rat alpha4beta2 receptor; assay: Antagonism of alpha4beta2 receptors in oocytes (residual inhibition of ACh response after drug); assay type: cell-based; settings: xenopus oocytes
# Method: as §1, with “Micropipettes were filled with 3 M KCl and had resistances of 0.5-2 MOhms.” left out, “Oocytes with resting potentials of less than -30 mV were rejected.” left out
# as §2
# [7] = biological target: T2, rat alpha7 receptor; assay: cell-based; settings: for α7 receptor activation (in words): oocyte expression system; for EC50: oocytes, read-out: α7 EC50
# Method: FIG. 13A. Effects of chronic injections of DMXB or nicotine on high affinity [^3 H]ACh or [^125 I]α-bungarotoxin (BTX) binding in rat neocortices. Adult male rats were injected with saline vehicle, 1 mg/kg DMXB or 0.2 mg/kg nicotine (NIC) (IP) daily for 2 weeks. At that time, neocortices were removed and assayed for high affinity [^3 H]ACh or [^125 I]α-bungarotoxin binding as described in the text. […] Responses of rat α7 ACHR to 3-CA, 2-MeOCA and 4-MeOCA. Concentration-response relationships for the peak agonist activated currents of oocytes injected with RNA coding for the rat α7 subunit. All responses were initially measured relative to the individual oocyte-response to 500 μM ACh, applied 5 min prior to drug-application. Responses were normalized relative to the maximum response obtainable with ACh so that a response of 1 represents full efficacy. The ratio of 500 μM ACh control response to ACh maximum was taken from Papke et al., 1997.
# as §1
# [8] = biological target: T1, rat alpha4beta2 receptor; assay: Activation of alpha4beta2 receptors expressed in Xenopus oocytes; assay type: cell-based; settings: Table 4; read-out: Oocytes Agonist α4
# Method: FIG. 14A. Responses of α4β2 ACHR to 3-CA, 2-MeOCA or 4-MeOCA. Concentration-response relationships for the peak agonist activated currents of oocytes injected with RNA coding for rat α4β2 subunits. Responses are first expressed relative to the response to 10 μM ACh, applied 5 min before drug-application, then normalized to the maximum response obtainable with ACh so that a response of 1 represents full efficacy. The ratio between 10 μM ACh and maximum ACh response was determined in separate experiments.
# as §1
# [9] = test system: PC12 cells; assay type: cell-based; settings: for neurite protection during NGF-deprivation (in words): 10 μM; for Neurite Counts: 10 μM (NGF 100 ng/ml), 4 days after removal of serum and NGF, mean±SEM, * p<0.05
# Method: PC12 cell-culture methods were modified from Greene and Tischler (1976). Cells were plated at 30-40% confluence and grown in Dulbecco's Modified Eagle Medium containing 10% heat-inactivated horse serum, 5% fetal bovine serum, 100 units/ml penicillin, 100 μg/ml streptomycin and 0.5 mM 1-glutamine. Cultures were maintained at 37° C., […] /6% CO2 and 90-92% humidity in culture plates pre-coated with poly-1lysine (10 g/L). Cultures were maintained for 7 days in serum-supplemented medium to which 100 ng/ml rat 2.5S NGF was added at day 1. On day 7, conditioned medium was replaced serum-free medium containing specified drugs. Four days later, cell density was estimated using the NIH Image program version 1.47 and number of neurite-expressing cells counted manually in blind fashion as described previously (Martin et al., 1994). A Nikon inverted microscope (100× magnification) was attached to a Mac II computer via a monochrome video camera (Cohu, Inc., San Diego, Calif.). Four random areas were counted per plate and there were 4 plates per treatment group, unless otherwise indicated. Neurites were defined as processes at least 2× the length of the perikaryon. To assess the reliability of the image analyses, a reticle was used for direct quantification of cells in the same view as the one analyzed in random samples.
# PC12 cells were differentiated for 1 week with NGF. Drugs were administered for the 4 day interval after removal of serum and NGF. Neuites were counted and expressed as the mean±SEM of at least 3 plates/group.
# [10] = test system: animal models of learning and memory; settings: animals; cited from earlier work
# [11] = biological target: T2, rat alpha7 receptor; settings: cited from earlier work
# [12] = biological target: T2, rat alpha7 receptor; settings: literature; cited from earlier work
# [13] = test system: alpha7 nicotinic receptors
# [14] = test system: cholinesterase-staining cells in the nucleus basalis; settings: rat, in vivo
# Method: Passive avoidance behavior was measured in nucleus basalis lesioned rats after intraperitoneal (IP) injections of drugs (base weight) or 0.9% saline diluent. For lesions, male 5 month old Sprague Dawley rats were anesthetized with 30 mg/kg sodium pentobarbital (IP) and then infused bilaterally with 1 μl of 5 μg/μl ibotenic acid in phosphate buffered saline, pH 7.4, into the nucleus basalis as described previously (17). Infusion coordinates were anterior 7.0 mm, lateral 2.6 mm and vertical 6.5 mm according to Paxinos and Watson (Paxinos and Watson, 1986).
# Histological assessments of the ibotenic acid placements in the nucleus basalis were made after behavioral measurements, using cholinesterase staining in formalin-fixed tissues.
# [15] = 1 μM (Table 2), read-out: alpha7 binding: % inhibition of alphabungarotoxin binding
# [16] = Table 4, read-out: Receptor Binding α7
# [17] = Table 4, read-out: Oocytes Agonist α7
# [18] = read-out: alpha7 activation: % response observed with 500 μM acetylcholine
# alpha7 receptor (high affinity alpha-bungarotoxin binding, rat brain membranes), sequence (Q05941 23-502): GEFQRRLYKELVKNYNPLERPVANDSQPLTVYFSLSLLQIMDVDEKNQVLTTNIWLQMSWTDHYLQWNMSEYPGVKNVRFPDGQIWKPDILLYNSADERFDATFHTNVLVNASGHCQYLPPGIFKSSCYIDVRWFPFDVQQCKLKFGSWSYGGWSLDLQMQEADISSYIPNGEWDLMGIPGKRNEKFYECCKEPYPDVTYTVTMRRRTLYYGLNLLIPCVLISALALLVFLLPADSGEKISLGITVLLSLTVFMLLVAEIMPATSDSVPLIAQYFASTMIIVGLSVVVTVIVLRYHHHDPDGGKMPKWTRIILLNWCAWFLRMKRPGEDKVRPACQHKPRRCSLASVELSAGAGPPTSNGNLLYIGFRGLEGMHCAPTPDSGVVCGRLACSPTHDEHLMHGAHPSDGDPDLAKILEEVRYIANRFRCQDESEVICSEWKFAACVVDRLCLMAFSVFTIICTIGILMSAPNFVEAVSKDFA
# T2 sequence (Q05941 23-502): as above
# T1 sequence (P09483 31-630): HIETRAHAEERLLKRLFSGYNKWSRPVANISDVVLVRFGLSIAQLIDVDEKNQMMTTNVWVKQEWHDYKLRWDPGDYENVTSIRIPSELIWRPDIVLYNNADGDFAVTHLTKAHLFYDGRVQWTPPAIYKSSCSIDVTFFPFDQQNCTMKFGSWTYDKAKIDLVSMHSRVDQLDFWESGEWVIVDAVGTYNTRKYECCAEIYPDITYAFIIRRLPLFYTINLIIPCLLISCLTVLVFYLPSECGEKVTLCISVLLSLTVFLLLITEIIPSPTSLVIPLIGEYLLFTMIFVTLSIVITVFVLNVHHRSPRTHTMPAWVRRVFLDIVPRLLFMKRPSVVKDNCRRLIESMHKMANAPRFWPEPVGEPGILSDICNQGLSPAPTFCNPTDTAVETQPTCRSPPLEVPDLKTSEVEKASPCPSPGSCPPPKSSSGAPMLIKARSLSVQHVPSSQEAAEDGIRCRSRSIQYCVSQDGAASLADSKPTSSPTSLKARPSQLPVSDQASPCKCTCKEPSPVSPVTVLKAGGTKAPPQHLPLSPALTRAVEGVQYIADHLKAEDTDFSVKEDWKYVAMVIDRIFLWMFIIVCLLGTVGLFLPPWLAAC
# T1 sequence (P12390 25-500): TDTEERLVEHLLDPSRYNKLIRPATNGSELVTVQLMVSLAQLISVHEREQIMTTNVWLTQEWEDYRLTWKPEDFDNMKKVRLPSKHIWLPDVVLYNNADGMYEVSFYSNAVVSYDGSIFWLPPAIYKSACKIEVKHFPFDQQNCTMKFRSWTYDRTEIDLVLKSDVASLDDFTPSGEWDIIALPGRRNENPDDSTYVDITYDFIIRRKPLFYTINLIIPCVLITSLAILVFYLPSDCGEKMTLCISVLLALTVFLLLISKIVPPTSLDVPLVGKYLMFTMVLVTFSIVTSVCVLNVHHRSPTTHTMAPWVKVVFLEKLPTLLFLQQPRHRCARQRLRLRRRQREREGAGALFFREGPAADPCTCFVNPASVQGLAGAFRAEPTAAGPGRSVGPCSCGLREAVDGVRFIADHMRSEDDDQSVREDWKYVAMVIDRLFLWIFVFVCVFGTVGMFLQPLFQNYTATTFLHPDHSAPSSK
# T3 sequence (P09483 31-630): as the sequence (P09483 31-630) above
# T3 sequence (P12390 25-500): as the sequence (P12390 25-500) above
Structure (SMILES),Emax [1] [%],IC50 [2] [µM],Oocytes Antagonist [2],alpha 7 antagonism: % of antagonism of acetylcholine administered after drug [2],"inhibition at 1 µM [4, 15] [%]","inhibition at 1 µM [4, 16] [%]",IC50 [4] [µM],inhibition at 1 µM [5] [%],alpha4beta2 antagonism: % of antagonism of acetylcholine administered after drug [6],selectivity α7 over α4β2 (in words) [7],"Emax [7, 17] [%]",α7 receptor activation (in words) [7],EC50 [7] [µM],"Emax [7, 18] [%]",Emax [8] [%],neurite protection during NGF-deprivation (in words) [9],Neurite Counts [9],also measured
"C(=C\c1ccccc1)/C=C1\CCCN=C1c1cccnc1 [3-CA, E,E-3-(Cinnamylidene)anabaseine]",< 3,15 ± 6,.50,45,94.7,94.7,0.08,6.2,10,selectively activate α7 receptors over α4β2,92,fully efficaciously,3.2 ± 0.7,92,2.6,neuroprotective against neurite-loss during NGF-deprivation; also recorded: protected against NGF-deprivation neurite loss; also recorded: exhibited cytoprotective activity; also recorded: effective,185 ± 19,"inhibition of α7 receptors, estimated ([2]; 10 μM, estimated from oocyte results): less than 20%; inhibition at 10 µM ([2]; 10 μM, ACh application 5 min later, read-out: long term inhibition of α7 receptors): < 20%; PC12 Cyto. [3]: +?"
"COc1ccc(/C=C/C=C2\CCCN=C2c2cccnc2)cc1 [4-MeOCA, E,E-3-(4-Methoxycinnamylidene)anabaseine]",< 2,5 ± 2.3,.104,75,94.1,94.1,0.054,32,34,selectively activate α7 receptors over α4β2,45,fully efficaciously,15.9 ± 7.9,45,< 5,Neither 2-MeOCA nor 4-MeOCA elicited neurite-protection,155 ± 23,times less potent (α7 activation) [7]: 2-3 times
"CN(C)c1ccc(/C=C/C=C2\CCCN=C2c2cccnc2)cc1 [DMAC, E,E-3-(4-dimethylaminocinnamylidene) anabaseine]",,,,,,,,,,,,,,,,,,memory-related performance (in words) [10]: memory-enhancing activity in rodents; also recorded: effective in this behavioral paradigm; α7 agonist activity (in words) ([11]; background/literature): fully efficacious and potent α7 agonist; selectivity α7 over α4β2 / other nicotinic subtypes (in words) ([11]; literature): selectively activate α7 receptors over α4β2; long term inhibition / antagonism of α7 receptors (in words) [12]: long term inhibition of α7 receptors following activation; also recorded: potent antagonist activity
CCO [ethanol],,,,,,,,,,,,,,,,,,antagonism of nicotinic receptors by ethanol (in words) [13]: alpha7 nicotinic receptors were sensitive to antagonism by ethanol while other receptor types were not affected
N[C@H](C(=O)O)c1cc(=O)[nH]o1 [ibotenic acid],,,,,,,,,,,,,,,,,,reduction of cholinesterase-staining cells in nucleus basalis [14]: over 80%
